In series [1] the test system is P53 protein. Description: P53 protein expression of Sk-Hep-1. In kind it is cell-based, human. The settings on record: Sk-Hep-1 cells, compared with control; concentrations not given. An excerpt:
(§1) Referring to FIG. 5A and FIG. 5B.

Series [2] has as its system human leukemia cell line K562. Description: viability of human leukemia cell line K562. The settings on record: 5-FU alone. In kind it is cell-based. An excerpt: (§2) Please refer to FIG. 6A and FIG. 6B.
In series [3] the test system is human liver cancer cell line Hep-G2. Description: effect on the cell cycle of Hep-G2. In kind it is cell-based. The procedure:
(§3) Please refer to FIG. 4A and FIG. 4B. […] Please further refer to the following Table 1 and Table 2.
Furthermore, as shown in FIG. 4B and Table 2, in the cell cycle of Hep-G2, the percentage of G1, S, and G2 phases are about 52.7%, 26.54%, and 20.76% respectively. When treat the Hep-G2 cells with 10 μM of 5-FU alone, the percentage of G1, S, and G2 phases are about 47.04%, 42.68%, and 10.29% respectively. From the comparison with the control, 5-FU can increase the percentage of S phase and reduce the percentage of G1 phase and G2 phase. […] From the results, 5-FU combined with EGCG can effectively interrupt the cell cycle of Hep-G2 cells at G1 phase, and prevent the cell cycle from entering S phase and G2 phase.

Series [4] concerns P53 protein. Description: P53 protein expression of Hep-G2. In kind it is cell-based, human. Particulars: Hep-G2 cells, compared with control; concentrations not given.
Source text: as §1
However, treat Hep-G2 with EGCG can reduce the expression of P53 protein to 0.74-fold.

Series [5] concerns human leukemia cell line Jurkat T. Description: viability of human leukemia cell line Jurkat T. It counts as cell-based. The settings on record: 5-FU alone.
Source text: as §2

Series [6] deals with human liver cancer cell line Sk-Hep-1. Description: effect on the cell cycle of Sk-Hep-1. It counts as cell-based. The procedure: as §3
As shown in FIG. 4A and Table 1, in the cell cycle of Sk-Hep-1, the percentage of G1, S, and G2 phases are about 43.04%, 30.9%, and 23.75% respectively. When treat the Sk-Hep-1 cells with 10 μM of 5-FU alone, the percentage of G1, S, and G2 phases are about 51.51%, 31.19%, and 17.3% respectively. From the comparison with the control, 5-FU can increase the percentage of G1 phase and reduce the percentage of G2 phase. […] From the results, 5-FU combined with EGCG can effectively interrupt the cell cycle of Sk-Hep-1 cells at G1 phase, and prevent the cell cycle from entering S phase.

Series [7] has the same test system. Description: viability of human liver cancer cell line Sk-Hep-1 after treatment. The settings on record: for viability of Sk-Hep-1: after 48 hours.

Molecules are shown by their SMILES.

For orientation: viability means the share of living cells, or the viability signal relative to a control. Consider `O=c1[nH]cc(F)c(=O)[nH]1` [5-FU, 5-Fluorouracil], for which the “expression of P53 protein” value in the series on P53 protein [1] and in the series with P53 protein [4] was 1.64 fold in each case. In series [2], the “effect on the viability of K562” value was “almost no effect”. Besides, the “Cell cycle phase G2 (%)” value in series [3] (5-FU, 10 μM) is recorded as 10.29 ± 2.5%; in series [6] (5-FU, 10 μM), 17.30 ± 0.3%. The “Cell cycle phase S (%)” value in series [3] (5-FU, 10 μM) is reported as 42.68 ± 2.4%; in series [6] (5-FU, 10 μM), 31.19 ± 1.4%. In addition, in series [5], the “viability of Jurkat T” value is “about 80%”. In series [7] (Homo sapiens, SK-HEP1, 48 h, read-out: viability of Sk-Hep-1), the viability at 10 µM is about 75%.
`O=C(O[C@@H]1Cc2c(O)cc(O)cc2O[C@@H]1c1cc(O)c(O)c(O)c1)c1cc(O)c(O)c(O)c1` [EGCG, Epigallocatechin gallate]: the “expression of P53 protein” value in the series on P53 protein [1] came out at 1.8 fold; in the series with P53 protein [4] it was 0.74 fold. The “Cell cycle phase G1 (%)” value in series [3] (EGCG, 50 μM) is 62.15 ± 2.4%; in series [3] (EGCG, 100 μM), 62.23 ± 5.7%; in series [3] (EGCG, 250 μM), 61.83 ± 1.6%; in series [6] (EGCG, 50 μM), 54.41 ± 5.4%; in series [6] (EGCG, 100 μM), 56.60 ± 3.8%; in series [6] (EGCG, 250 μM) it was 53.92 ± 1.9%. The “Cell cycle phase G2 (%)” value in series [3] (EGCG, 50 μM) is recorded as 9.33 ± 4.7%; in series [3] (EGCG, 100 μM) it was 11.51 ± 4.1%; in series [3] (EGCG, 250 μM), 9.63 ± 1.7%; in series [6] (EGCG, 50 μM), 22.09 ± 2.2%; in series [6] (EGCG, 100 μM) it was 19.5 ± 0.7%; in series [6] (EGCG, 250 μM), 17.55 ± 1.7%. The “Cell cycle phase S (%)” value stood at 28.52 ± 4.3% in series [3] (EGCG, 50 μM); 26.26 ± 3.5% in series [3] (EGCG, 100 μM); 28.53 ± 1.3% in series [3] (EGCG, 250 μM); 23.51 ± 3.2% in series [6] (EGCG, 50 μM); 23.90 ± 3.1% in series [6] (EGCG, 100 μM); 28.53 ± 2.3% in series [6] (EGCG, 250 μM). Moreover, the “viability of Sk-Hep-1” value is “about 90%” in series [7] (50 μM of EGCG), about 80% in series [7] (100 μM of EGCG), about 60% in series [7] (250 μM of EGCG) and about 50% in series [7] (500 μM of EGCG).
